Assay [1] concerns the target T1, Coagulation factor XII (Homo sapiens, UniProt P00748).
T1 sequence (P00748 whole entry): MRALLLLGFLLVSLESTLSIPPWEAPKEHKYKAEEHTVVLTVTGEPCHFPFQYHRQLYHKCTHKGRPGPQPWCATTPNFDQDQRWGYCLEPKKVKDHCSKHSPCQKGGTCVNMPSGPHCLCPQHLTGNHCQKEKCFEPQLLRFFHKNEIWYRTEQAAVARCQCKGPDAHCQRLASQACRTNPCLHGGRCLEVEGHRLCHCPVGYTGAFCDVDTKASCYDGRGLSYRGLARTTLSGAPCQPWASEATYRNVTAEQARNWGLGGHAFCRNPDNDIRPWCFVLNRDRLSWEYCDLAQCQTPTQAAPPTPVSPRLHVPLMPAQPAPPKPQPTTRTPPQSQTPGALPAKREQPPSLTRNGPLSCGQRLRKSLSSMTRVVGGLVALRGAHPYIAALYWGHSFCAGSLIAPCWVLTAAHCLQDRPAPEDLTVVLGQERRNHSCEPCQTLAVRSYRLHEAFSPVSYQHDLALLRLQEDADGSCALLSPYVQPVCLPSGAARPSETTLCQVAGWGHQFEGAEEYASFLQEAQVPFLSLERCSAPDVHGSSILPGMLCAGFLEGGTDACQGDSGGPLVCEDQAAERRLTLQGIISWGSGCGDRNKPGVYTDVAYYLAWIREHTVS
The experiment in a line: Enzyme Assay: Human serine protease enzymes plasmin, thrombin, trypsin, Factor Xa and Factor XIIa were assayed for enzymatic activity using an appropriate fluorogenic substrate. Protease activity was measured by monitoring the accumulation of liberated fluorescence from the substrate over 5 minutes. The linear rate of fluorescence increase per minute was expressed as percentage (%) activity. The ….
Description: Enzyme Assay: Human serine protease enzymes plasmin, thrombin, trypsin, Factor Xa and Factor XIIa were assayed for enzymatic activity using an appropriate fluorogenic substrate. Protease activity was measured by monitoring the accumulation of liberated fluorescence from the substrate over 5 minutes. The linear rate of fluorescence increase per minute was expressed as percentage (%) activity. The Km for the cleavage of each substrate was determined by standard transformation of the Michaelis-Menten equation.

In assay [2] the target is Kallikrein-1 (Homo sapiens, UniProt P06870). The experiment in a line: (§1) In Vitro Inhibition Assay: KLK1 inhibitory activity in vitro was determined using standard published methods (see e.g. Johansen et al., Int. J. Tiss. Reac. 1986, 8, 185; Shori et al., Biochem. Pharmacol., 1992, 43, 1209; Stürzebecher et al., Biol. Chem. Hoppe-Seyler, 1992, 373, 1025). Human KLK1 (Callbiochem) was incubated at 37° C. with the fluorogenic substrate H-DVal-Leu-Arg-AFC and various concentrations of the test compound. Residual enzyme activity (initial rate of reaction) was determined by measuring the change in […] at 410 nm and the IC50 value for the test compound was determined.
Sequence of Kallikrein-1 (P06870 whole entry): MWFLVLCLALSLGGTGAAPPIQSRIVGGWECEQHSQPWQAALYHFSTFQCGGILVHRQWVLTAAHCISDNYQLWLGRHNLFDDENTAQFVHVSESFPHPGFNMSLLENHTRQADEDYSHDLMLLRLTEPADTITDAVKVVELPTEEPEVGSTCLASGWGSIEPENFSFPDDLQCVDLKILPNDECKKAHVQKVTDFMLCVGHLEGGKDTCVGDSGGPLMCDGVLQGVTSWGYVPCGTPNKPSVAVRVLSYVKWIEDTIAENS

In assay [3] the target is Plasma kallikrein (Homo sapiens, UniProt P03952). The description is as §1, with “Plasma kallikrein” for “KLK1”, “Stiirzebecher” for “Stürzebecher”, “plasma kallikrein (Protogen)” for “KLK1 (Callbiochem)”, “H-DPro-Phe-Arg-AFC” for “H-DVal-Leu-Arg-AFC”. It counts as cell-free.
Sequence of Plasma kallikrein (P03952 20-390 limits assumed): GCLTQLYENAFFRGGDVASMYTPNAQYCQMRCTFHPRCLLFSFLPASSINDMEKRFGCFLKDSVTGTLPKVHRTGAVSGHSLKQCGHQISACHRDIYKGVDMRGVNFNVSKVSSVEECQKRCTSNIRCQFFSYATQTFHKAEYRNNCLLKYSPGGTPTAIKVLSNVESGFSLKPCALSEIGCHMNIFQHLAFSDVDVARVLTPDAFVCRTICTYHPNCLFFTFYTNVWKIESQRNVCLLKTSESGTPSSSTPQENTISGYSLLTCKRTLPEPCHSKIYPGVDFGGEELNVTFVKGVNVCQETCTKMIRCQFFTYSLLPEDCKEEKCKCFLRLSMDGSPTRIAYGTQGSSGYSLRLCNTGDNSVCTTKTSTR
Sequence of Plasma kallikrein (P03952 391-638 limits assumed): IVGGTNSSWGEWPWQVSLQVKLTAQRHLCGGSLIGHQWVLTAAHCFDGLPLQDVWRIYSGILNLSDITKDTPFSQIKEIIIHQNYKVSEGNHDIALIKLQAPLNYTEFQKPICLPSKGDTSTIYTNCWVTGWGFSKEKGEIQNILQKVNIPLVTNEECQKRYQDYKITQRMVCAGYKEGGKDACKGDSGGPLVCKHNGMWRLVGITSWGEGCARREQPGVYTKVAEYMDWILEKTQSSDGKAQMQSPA

Molecules are shown by their SMILES. A value given as a limit tells only on which side of the number the result lay.

The term IC50 denotes the concentration that inhibits the measured activity by half. For `CCOc1ccc(C[C@@H](NC(=O)c2ccc(C)cc2)C(=O)N[C@@H](Cc2ccccc2)C(=O)NCc2ccc(CN)cc2)cc1`, the IC50 was over 10000 nM in assay [1], over 10000 nM in assay [2] and 32 nM in assay [3].

Take `CCCOc1ccc(C[C@@H](NC(=O)c2ccccc2)C(=O)N[C@@H](Cc2ccccc2)C(=O)NCc2ccc(CN)cc2)cc1`: the figures for the IC50 in assay [2] and in assay [3] were 9500 nM and 40 nM, respectively.

On to `NCc1ccc(CNC(=O)[C@H](Cc2ccccc2)NC(=O)[C@@H](Cc2ccc(OCc3ccccc3)cc2)NC(=O)c2ccccc2)cc1`, for which the IC50 in assay [2] is over 10000 nM; in assay [3], 1210 nM.

Consider `CCOc1ccc(C[C@@H](NC(=O)c2ccccc2)C(=O)N[C@@H](Cc2c[nH]c3ccccc23)C(=O)NCc2ccc(CN)cc2)cc1`, for which the IC50 is over 10000 nM in assay [2] and 28 nM in assay [3].

On to `NCc1ccc(CNC(=O)[C@H](Cc2ccccc2)NC(=O)[C@H](N)CC2CCCCC2)cc1`, for which the half-inhibitory concentration (IC50) in assay [2] was over 1000 nM; in assay [3], 740 nM.

With `CCOc1ccc(C[C@@H](NC(=O)c2ccc(OC)cc2)C(=O)N[C@@H](Cc2ccccc2)C(=O)NCc2ccc(CN)cc2)cc1`, the figures for the IC50 in assay [1], in assay [2] and in assay [3] were over 10000 nM, over 10000 nM and 46 nM, respectively.
